Each structure is given as a SMILES string.

The results in this text go back to patent US12600698B2, “Kinase inhibitors” (Vidya Therapeutics, Inc., priority 2021, dated 2026).

BTK, sequence (Q06187 whole entry): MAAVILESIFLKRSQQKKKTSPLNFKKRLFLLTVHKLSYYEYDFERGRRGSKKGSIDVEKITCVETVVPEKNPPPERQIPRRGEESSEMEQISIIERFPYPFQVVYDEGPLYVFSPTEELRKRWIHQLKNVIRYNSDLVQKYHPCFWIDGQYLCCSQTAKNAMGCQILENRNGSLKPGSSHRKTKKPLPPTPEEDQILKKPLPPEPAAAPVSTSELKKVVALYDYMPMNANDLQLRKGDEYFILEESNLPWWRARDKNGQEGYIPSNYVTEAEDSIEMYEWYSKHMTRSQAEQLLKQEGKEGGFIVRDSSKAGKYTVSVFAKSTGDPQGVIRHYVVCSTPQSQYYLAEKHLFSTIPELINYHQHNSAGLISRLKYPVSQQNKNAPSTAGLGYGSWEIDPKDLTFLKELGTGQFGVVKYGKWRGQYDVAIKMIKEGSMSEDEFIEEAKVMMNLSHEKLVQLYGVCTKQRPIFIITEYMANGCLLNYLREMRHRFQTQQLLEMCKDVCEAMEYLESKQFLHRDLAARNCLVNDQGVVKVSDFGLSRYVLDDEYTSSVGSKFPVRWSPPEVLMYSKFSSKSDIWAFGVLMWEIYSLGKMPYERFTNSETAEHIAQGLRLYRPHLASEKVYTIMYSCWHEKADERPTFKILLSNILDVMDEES

The target of the test is BTK (Homo sapiens, UniProt Q06187). As to the kind of experiment: BTK IC50 (EZ reader kinase assay). The format is biochemical. Also noted: purchased Carna. The conditions noted are these: ATP 1 mM, BTK 2 nM, 90 minutes at room temperature. The method, then:
Solutions of compounds (test or control) in DMSO were prepared at the desired concentrations, and serially diluted to 11 concentrations by 3-fold dilution in 384pp-plate using TECAN EVO200. 20 nL of stock were transferred to 384 plate using Echo550. DMSO was used as vehicle control.
Two separate solutions were prepared—an ATP solution containing MgCl2 (10 mM), Brij-35 (0.01%), DTT (2 mM), BSA (0.05%), EGTA (1 mM), HEPE (pH7.5) (50 mM), FLPeptide (6 uM) and ATP (4 mM); and a BTK solution containing MgCl2 (10 mM), Brij-35 (0.01%), DTT (2 mM), BSA (0.05%), EGTA (1 mM), HEPE (pH7.5) (50 mM) and BTK (2.67 nM). (BTK was obtained from Carna; FLPeptide2 was obtained from PerkinElmer and Ibrutinib was obtained from Selleck.) 5 uL of ATP solution were added to each well, followed by addition of 15 uL of BTK solution to initiate the reaction. (Note the final volume of each well was 20 uL containing MgCl2 (10 mM), Brij-35 (0.01%), DTT (2 mM), BSA (0.05%), EGTA (1 mM), HEPE (pH7.5) (50 mM), FLPeptide (1.5 uM), ATP (1 mM) and BTK (2 nM). The plates were incubated at room temperature for 90 minutes and then stopping buffer added (75 uL, containing 0.5 M EDTA) to terminate the reaction. Samples from each well were analyzed using EZ reader.
The % remaining activity was calculated using read conversion ratio (CR) according to the equation: […]
XLFit (equation 201) was used to calculate IC50's by floating both bottom and top.
BTK IC50 values are provided in Table 5, for the compounds described in Examples 1-13, wherein: • “A” denotes an IC50<1 nM; • “B” denotes an IC50 1-10 nM; and • “C” denotes an IC50>10 nM.
`CC#CC(=O)NC1CCC=C(c2c(F)cc(C(N)=O)c3[nH]c(C)c(Cl)c23)C1` (racemic) [1A(rac), 4-(5-(but-2-ynamido)cyclohex-1-en-1-yl)-3-chloro-5-fluoro-2-methyl-1H-indole-7-carboxamide] came in with an IC50 of 0.001 to 0.01 µM.

In the case of `CC#CC(=O)NC1C=C(c2c(F)cc(C(N)=O)c3[nH]c(C)c(Cl)c23)CCC1` (racemic) [5B(rac), 4-(3-(but-2-ynamido)cyclohex-1-en-1-yl)-3-chloro-5-fluoro-2-methyl-1H-indole-7-carboxamide], the IC50 is 0.001 to 0.01 µM.

`CC#CC(=O)N[C@H]1CCC[C@H](c2c(F)cc(C(N)=O)c3[nH]c(C)c(Cl)c23)C1` (relative stereo) [Compound 6-(trans), 4-((trans)-3-(but-2-ynamido)cyclohexyl)-3-chloro-5-fluoro-2-methyl-1H-indole-7-carboxamide] came in with an IC50 of 0.001 to 0.01 µM.

In turn, `CC#CC(=O)N(C)[C@H]1CCC=C(c2c(F)cc(C(N)=O)c3[nH]c(C)c(C)c23)C1` [4A(S), (S)-5-fluoro-2,3-dimethyl-4-(5-(N-methylbut-2-ynamido)cyclohex-1-en-1-yl)-1H-indole-7-carboxamide] gave an IC50 of 0.001 to 0.01 µM.

The compound `CC#CC(=O)N(C)[C@@H]1C=C(c2c(F)cc(C(N)=O)c3[nH]c(C)c(C)c23)CCC1` [4B(S), (S)-5-fluoro-2,3-dimethyl-4-(3-(N-methylbut-2-ynamido)cyclohex-1-en-1-yl)-1H-indole-7-carboxamide] gave an IC50 of 0.001 to 0.01 µM.

In turn, `CC#CC(=O)N[C@H]1C=C(c2c(F)cc(C(N)=O)c3[nH]c(C)c(Cl)c23)CCC1` [5B(R), (R)-4-(3-(but-2-ynamido)cyclohex-1-en-1-yl)-3-chloro-5-fluoro-2-methyl-1H-indole-7-carboxamide] had an IC50 of 0.001 to 0.01 µM.

Turning to `CC#CC(=O)N[C@@H]1CCC[C@@H](c2c(F)cc(C(N)=O)c3[nH]c(C)c(Cl)c23)C1` [6-(1R,3R), 4-((1R,3R)-3-(but-2-ynamido)cyclohexyl)-3-chloro-5-fluoro-2-methyl-1H-indole-7-carboxamide], the IC50 was greater than 0.01 µM.

In turn, `CC#CC(=O)N[C@H]1CCC[C@H](c2c(F)c(F)c(C(N)=O)c3[nH]c(C)c(Cl)c23)C1` [11-(1S,3S), 4-[(1S,3S)-3-(but-2-ynoylamino)cyclohexyl]-3-chloro-5,6-difluoro-2-methyl-1H-indole-7-carboxamide] came in with an IC50 greater than 0.01 µM.

`CC#CC(=O)N[C@H]1CC[C@H](c2c(F)cc(C(N)=O)c3[nH]c(C)c(C)c23)C1` [12-(1S,3S), 4-((1S,3S)-3-(but-2-ynamido)cyclopentyl)-5-fluoro-2,3-dimethyl-1H-indole-7-carboxamide] displayed a concentration for half-maximal inhibition (IC50) greater than 0.01 µM.

`CC#CC(=O)N[C@@H]1CC[C@H](c2c(F)cc(C(N)=O)c3[nH]c(C)c(C)c23)C1` [13-(1S,3R), 4-((1S,3R)-3-(but-2-ynamido)cyclopentyl)-5-fluoro-2,3-dimethyl-1H-indole-7-carboxamide] showed an IC50 greater than 0.01 µM.

As for `CC#CC(=O)N[C@H]1CCC[C@H](c2c(F)c(F)c(C(N)=O)c3[nH]c(C)c(C#N)c23)C1` [Compound 7-(1S,3S), 4-((1S,3S)-3-(but-2-ynamido)cyclohexyl)-3-cyano-5,6-difluoro-2-methyl-1H-indole-7-carboxamide], the IC50 was greater than 0.01 µM.

In turn, `CC#CC(=O)N[C@@H]1CCC[C@@H](c2c(F)c(F)c(C(N)=O)c3[nH]c(C)c(F)c23)C1` [Compound 8-(1R,3R), 4-((1R,3R)-3-(but-2-ynamido)cyclohexyl)-3,5,6-trifluoro-2-methyl-1H-indole-7-carboxamide] had an IC50 of 0.001 to 0.01 µM.

Take `CC#CC(=O)N[C@H]1CCC[C@@H](c2c(F)c(F)c(C(N)=O)c3[nH]c(C)c(F)c23)C1` [Compound 8-(1R,3S), 4-((1R,3S)-3-(but-2-ynamido)cyclohexyl)-3,5,6-trifluoro-2-methyl-1H-indole-7-carboxamide]: the concentration for half-maximal inhibition (IC50) fell in the range of 0.001 to 0.01 µM.

As to `CC#CC(=O)N[C@@H]1CCC[C@H](c2c(F)c(F)c(C(N)=O)c3[nH]c(C)c(F)c23)C1` [Compound 8-(1S,3R), 4-((1S,3R)-3-(but-2-ynamido)cyclohexyl)-3,5,6-trifluoro-2-methyl-1H-indole-7-carboxamide], the IC50 was greater than 0.01 µM.

`CC#CC(=O)N[C@H]1CCC[C@H](c2c(F)c(F)c(C(N)=O)c3[nH]c(C)c(F)c23)C1` [Compound 8-(1S,3S), 4-((1S,3S)-3-(but-2-ynamido)cyclohexyl)-3,5,6-trifluoro-2-methyl-1H-indole-7-carboxamide] registered an IC50 greater than 0.01 µM.

The compound `CC#CC(=O)N[C@@H]1CCC[C@@H](c2c(F)c(F)c(C(N)=O)c3[nH]c(C)c(C)c23)C1` [Compound 9-(1R,3R), 4-((1R,3R)-3-(but-2-ynamido)cyclohexyl)-5,6-difluoro-2,3-dimethyl-1H-indole-7-carboxamide] yielded an IC50 greater than 0.01 µM.

The compound `CC#CC(=O)N[C@H]1CCC[C@@H](c2c(F)c(F)c(C(N)=O)c3[nH]c(C)c(C)c23)C1` [Compound 9-(1R,3S), 4-((1R,3S)-3-(but-2-ynamido)cyclohexyl)-5,6-difluoro-2,3-dimethyl-1H-indole-7-carboxamide] yielded a 50% inhibitory concentration (IC50) greater than 0.01 µM.

As to `CC#CC(=O)N[C@@H]1CCC[C@H](c2c(F)c(F)c(C(N)=O)c3[nH]c(C)c(C)c23)C1` [Compound 9-(1S,3R), 4-((1S,3R)-3-(but-2-ynamido)cyclohexyl)-5,6-difluoro-2,3-dimethyl-1H-indole-7-carboxamide], the IC50 was 0.001 to 0.01 µM.

On to `CC#CC(=O)N[C@H]1CCC[C@H](c2c(F)c(F)c(C(N)=O)c3[nH]c(C)c(C)c23)C1` [Compound 9-(1S,3S), 4-((1S,3S)-3-(but-2-ynamido)cyclohexyl)-5,6-difluoro-2,3-dimethyl-1H-indole-7-carboxamide], for which the concentration for half-maximal inhibition (IC50) fell in the range of 0.001 to 0.01 µM.
